Source: patent publication US9260408B2, “Dihydroquinoline-2-one derivatives” (Hoffmann-La Roche Inc., priority 2011, dated 2016)
Counter-ions that a name gives are not always drawn.

Key:
human CYP11B1 = target: T1, human CYP11B1 (Homo sapiens, UniProt P15538); assay: G-402 cellular enzyme assay, human CYP11B1 (cortisol release, HTRF); format: cell-based; settings: G-402 cells expressing human CYP11B1; 1 μM Deoxycortisol
T1 construct: expressed in transfected cells
T1 sequence (P15538 25-503): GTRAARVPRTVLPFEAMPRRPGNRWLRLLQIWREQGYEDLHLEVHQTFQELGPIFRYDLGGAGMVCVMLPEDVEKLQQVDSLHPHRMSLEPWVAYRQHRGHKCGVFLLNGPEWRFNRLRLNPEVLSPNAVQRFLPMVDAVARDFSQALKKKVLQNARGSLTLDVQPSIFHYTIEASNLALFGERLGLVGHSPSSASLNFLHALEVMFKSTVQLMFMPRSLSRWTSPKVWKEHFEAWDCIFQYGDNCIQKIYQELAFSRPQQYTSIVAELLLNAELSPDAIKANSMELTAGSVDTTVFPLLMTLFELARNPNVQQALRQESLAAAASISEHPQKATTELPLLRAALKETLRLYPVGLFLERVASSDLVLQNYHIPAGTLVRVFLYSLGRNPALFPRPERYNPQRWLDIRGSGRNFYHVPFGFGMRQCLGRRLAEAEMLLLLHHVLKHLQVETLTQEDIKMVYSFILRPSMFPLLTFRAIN
In short: (§1)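 EC50 comes from least-squares fitting of a 4-parameter MMF curve to steroid product levels, measured by HTRF as aldosterone for CYP11B2 or cortisol for CYP11B1. Stably transfected G-402 host cells were given substrate (1 μM deoxycorticosterone or deoxycortisol, respectively) with inhibitor for 16 h in medium with 2.5% charcoal-treated FCS.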

human CYP11B2 = target: T2, human CYP11B2 (Homo sapiens, UniProt P19099); assay: G-402 cellular enzyme assay, human CYP11B2 (aldosterone release, HTRF); format: cell-based; settings: G-402 cells expressing human CYP11B2; 1 μM Deoxycorticosterone
T2 construct: expressed in transfected cells
T2 sequence (P19099 25-503): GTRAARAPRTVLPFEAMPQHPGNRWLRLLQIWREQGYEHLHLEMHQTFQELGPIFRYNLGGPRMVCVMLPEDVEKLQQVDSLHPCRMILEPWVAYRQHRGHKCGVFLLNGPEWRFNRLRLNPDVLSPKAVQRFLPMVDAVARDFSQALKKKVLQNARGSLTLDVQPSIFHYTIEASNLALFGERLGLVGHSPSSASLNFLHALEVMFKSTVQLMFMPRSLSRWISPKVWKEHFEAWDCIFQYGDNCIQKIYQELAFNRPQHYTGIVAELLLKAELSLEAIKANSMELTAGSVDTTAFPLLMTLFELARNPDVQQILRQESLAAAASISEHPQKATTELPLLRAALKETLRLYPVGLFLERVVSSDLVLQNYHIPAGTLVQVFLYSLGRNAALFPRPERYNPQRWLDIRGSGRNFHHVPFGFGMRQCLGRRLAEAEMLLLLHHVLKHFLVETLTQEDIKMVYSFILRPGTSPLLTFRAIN
In short: as §1

| SMILES | EC50 (human CYP11B1) | EC50 (human CYP11B2) |
| --- | --- | --- |
| CN1C(=O)CCc2cc(-c3cncc(CNS(=O)(=O)c4ccc(Cl)nc4)c3)ccc21 [Example 158, 6-Chloro-pyridine-3-sulfonic acid [5-(1-methyl-2-oxo-1,2,3,4-tetrahydro-quinolin-6-yl)-pyridin-3-ylmethyl]-amide] | 6430 nM | 239 nM |
| CCS(=O)(=O)N(C)Cc1cncc(-c2cc3c(cc2F)N(C)C(=O)CC3)c1 [Example 211, Ethanesulfonic acid [5-(7-fluoro-1-methyl-2-oxo-1,2,3,4-tetrahydro-quinolin-6-yl)-pyridin-3-ylmethyl]-methyl-amide] | 119 nM | 5 nM |
| CCS(=O)(=O)N1CC[C@H]1COc1cncc(-c2ccc3c(c2)CCC(=O)N3C)c1 [Example 165, 6-[5-((S)-1-Ethanesulfonyl-azetidin-2-ylmethoxy)-pyridin-3-yl]-1-methyl-3,4-dihydro-1H-quinolin-2-one] | 494 nM | 13 nM |
| Cc1c(CN)cncc1-c1ccc2c(c1)CCC(=O)N2C [Example 222, 6-(5-Aminomethyl-4-methyl-pyridin-3-yl)-1-methyl-3,4-dihydro-1H-quinolin-2-one hydrochloride] | 1010 nM | 4 nM |
| CN1C(=O)CCc2cc(-c3cncc(O[C@H]4CCN(C(=O)C5CC5)C4)c3)ccc21 [Example 76, 6-[5-((S)-1-Cyclopropanecarbonyl-pyrrolidin-3-yloxy)-pyridin-3-yl]-1-methyl-3,4-dihydro-1H-quinolin-2-one] | 452 nM | 23 nM |
| CN1C(=O)CCc2cc(-c3cncc(O[C@@H]4CCNC4)c3)c(F)cc21 [Example 67, 7-Fluoro-1-methyl-6-[5-((R)-pyrrolidin-3-yloxy)-pyridin-3-yl]-3,4-dihydro-1H-quinolin-2-one hydrochloride] | 7670 nM | 160 nM |
| CN1C(=O)CCc2cc(-c3cncc(OC[C@@H]4CCCN4C(=O)OC(C)(C)C)c3)ccc21 [Example 51, (S)-2-[5-(1-Methyl-2-oxo-1,2,3,4-tetrahydro-quinolin-6-yl)-pyridin-3-yloxymethyl]-pyrrolidine-1-carboxylic acid tert-butyl ester] | 1870 nM | 32 nM |
| CN1C(=O)CCc2cc(-c3cncc(O[C@H]4CCCNC4)c3)ccc21 [Example 61, 1-Methyl-6-[5-((S)-piperidin-3-yloxy)-pyridin-3-yl]-3,4-dihydro-1H-quinolin-2-one] | 20100 nM | 508 nM |
| CN1C(=O)CCc2cc(-c3cncc(OCCN)c3)ccc21 [Example 42, 6-[5-(2-amino-ethoxy)-pyridin-3-yl]-1-methyl-3,4-dihydro-1H-quinolin-2-one hydrochloride] | 160 nM | 28 nM |
| CN1C(=O)CCc2cc(-c3cncc(CNC(=O)c4cnc(C(F)(F)F)cn4)c3)ccc21 [Example 126] | 642 nM | 7 nM |
| CCS(=O)(=O)N1CC[C@@H](Oc2cncc(-c3cc4c(cc3F)N(C)C(=O)CC4)c2)C1 [Example 168, 6-[5-((R)-1-Ethanesulfonyl-pyrrolidin-3-yloxy)-pyridin-3-yl]-7-fluoro-1-methyl-3,4-dihydro-1H-quinolin-2-one] | 273 nM | 14 nM |
| CN1C(=O)CCc2cc(-c3cncc(CNC(=O)CC(F)(F)F)c3)ccc21 [Example 78] | 1140 nM | 121 nM |
| CN1C(=O)CCc2cc(-c3cncc(CN4CCC[C@H]4COCC(F)(F)F)c3)ccc21 [Example 23] | 390 nM | 32 nM |
| Cc1noc(C)c1C(=O)NCc1cncc(-c2ccc3c(c2)CCC(=O)N3C)c1 [Example 75, 3,5-Dimethyl-isoxazole-4-carboxylic acid [5-(1-methyl-2-oxo-1,2,3,4-tetrahydro-quinolin-6-yl)-pyridin-3-ylmethyl]-amide] | 509 nM | 8 nM |
| CN1C(=O)CCc2cc(-c3cncc(CNC(=O)c4ncoc4C4CC4)c3)ccc21 [Example 110] | 187 nM | 6 nM |
| CCS(=O)(=O)NC1(c2cncc(-c3ccc4c(c3)CCC(=O)N4C)c2)CC1 [Example 166, Ethanesulfonic acid {1-[5-(1-methyl-2-oxo-1,2,3,4-tetrahydro-quinolin-6-yl)-pyridin-3-yl]-cyclopropyl}-amide] | 1210 nM | 22 nM |
| CCS(=O)(=O)NC1(c2cncc(-c3cc4c(cc3F)N(C)C(=O)CC4)c2)CC1 [Example 171, Ethanesulfonic acid {1-[5-(7-fluoro-1-methyl-2-oxo-1,2,3,4-tetrahydro-quinolin-6-yl)-pyridin-3-yl]-cyclopropyl}-amide] | 420 nM | 9 nM |
| Cc1nc(C(=O)NCc2cncc(-c3ccc4c(c3)CCC(=O)N4C)c2)c(C(F)(F)F)o1 [Example 108] | 1110 nM | 32 nM |
| CCS(=O)(=O)NCc1cncc(-c2cc3c(cc2F)N(C)C(=O)CC3)c1 [Example 16, ethanesulfonic acid [5-(7-fluoro-1-methyl-2-oxo-1,2,3,4-tetrahydro-quinolin-6-yl)-pyridin-3-ylmethyl]-amide] | 860 nM | 11 nM |
| Cc1nn(C)cc1C(=O)NCc1cncc(-c2ccc3c(c2)CCC(=O)N3C)c1 [Example 98] | 360 nM | 11 nM |

The remaining compounds from weak to strong by EC50 (human CYP11B1), led by results:

| EC50 (human CYP11B1) | EC50 (human CYP11B2) | SMILES |
| --- | --- | --- |
| 2570 nM | 71 nM | CN1C(=O)CCc2cc(-c3cncc(CN)c3)ccc21 [Example 36, 6-(5-Aminomethyl-pyridin-3-yl)-1-methyl-3,4-dihydro-1H-quinolin-2-one] |
| 1570 nM | 308 nM | CN1C(=O)CCc2cc(-c3cncc(N4CCCC4=O)c3)ccc21 [Example 14] |
| 568 nM | 5 nM | CN1C(=O)CCc2cc(-c3cncc(CN4CCCCS4(=O)=O)c3)ccc21 [Example 44, 6-[5-(1,1-Dioxo-1λ^6-[1,2]thiazinan-2-ylmethyl)-pyridin-3-yl]-1-methyl-3,4-dihydro-1H-quinolin-2-one] |
| 298 nM | 5 nM | CN1C(=O)CCc2cc(-c3cncc(O[C@@H]4CCN(C(=O)OC(C)(C)C)C4)c3)c(F)cc21 [Example 46, (R)-3-[5-(7-Fluoro-1-methyl-2-oxo-1,2,3,4-tetrahydro-quinolin-6-yl)-pyridin-3-yloxy]-pyrrolidine-1-carboxylic acid tert-butyl ester] |
| 291 nM | 13 nM | Cc1c(-c2cc3c(cc2F)N(C)C(=O)CC3)cncc1C(C)NC(=O)c1ncccc1Cl (single isomer, unassigned) [Example 258, 3-Chloro-pyridine-2-carboxylic acid {(R or S)-1-[5-(7-fluoro-1-methyl-2-oxo-1,2,3,4-tetrahydro-quinolin-6-yl)-4-methyl-pyridin-3-yl]ethyl}-amide] |
| 268 nM | 4 nM | CCS(=O)(=O)NC(C)(C)c1cncc(-c2ccc3c(c2)CCC(=O)N3C)c1 [Example 183, Ethanesulfonic acid {1-methyl-1-[5-(1-methyl-2-oxo-1,2,3,4-tetrahydro-quinolin-6-yl)-pyridin-3-yl]-ethyl}-amide] |
| 199 nM | 11 nM | CCS(=O)(=O)N(C)C(C)c1cncc(-c2ccc3c(c2)CCC(=O)N3C)c1 (racemic) [Example 186, (rac)-Ethanesulfonic acid methyl-{1-[5-(1-methyl-2-oxo-1,2,3,4-tetrahydro-quinolin-6-yl)-pyridin-3-yl]-ethyl}-amide] |
| 110 nM | 5 nM | CN1C(=O)CCc2cc(-c3cncc(NCc4ccccc4)n3)ccc21 [Example 25] |
| 44 nM | 2 nM | CN1C(=O)CCc2cc(-c3cncc(CNC(=O)c4cnoc4C4CC4)c3)ccc21 [Example 107] |
| 31 nM | 1 nM | CN(Cc1cncc(-c2cc3c(cc2F)N(C)C(=O)CC3)c1)C(=O)c1ncccc1Cl [Example 200, 3-Chloro-pyridine-2-carboxylic acid [5-(7-fluoro-1-methyl-2-oxo-1,2,3,4-tetrahydro-quinolin-6-yl)-pyridin-3-ylmethyl]-methyl-amide] |
| 24 nM | 3 nM | CN1C(=O)CCc2cc(-c3cncc(OC4CCN(C(=O)OC(C)(C)C)CC4)c3)ccc21 [Example 50, 4-[5-(1-Methyl-2-oxo-1,2,3,4-tetrahydro-quinolin-6-yl)-pyridin-3-yloxy]-piperidine-1-carboxylic acid tert-butyl ester] |
